Laboratory results published in PubChem BioAssay (NCI).
“And” between values parts separate entries of the source, which are not always exact repeats. Identical values can stand only once.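 Where inhibition never reached the appropriate level, the endpoint shown equals the highest concentration tested. Otherwise, values were interpolated linearly from a five-concentration, 48-hour dose response in 96-well plates. Abbreviation: GI50, concentration required for 50% inhibition of growth. The concentration for full growth arrest is given as TGI.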

Key:
Test in all cases: DTP human tumour cell line panel, 48 h
A498 renal = tested on: A498 renal
UACC-257 melanoma = tested on: UACC-257 melanoma
RXF 393 renal = tested on: RXF 393 renal
HCT-15 colon = tested on: HCT-15 colon
CCRF-CEM leukemia = tested on: CCRF-CEM leukemia
M14 melanoma = tested on: M14 melanoma
SF-268 CNS = tested on: SF-268 CNS
T-47D breast = tested on: T-47D breast
OVCAR-3 ovarian = tested on: OVCAR-3 ovarian
SNB-19 CNS = tested on: SNB-19 CNS

SMILES | GI50 (A498 renal) | TGI (A498 renal) | GI50 (UACC-257 melanoma) | TGI (UACC-257 melanoma) | GI50 (RXF 393 renal) | TGI (RXF 393 renal) | GI50 (HCT-15 colon) | TGI (HCT-15 colon) | GI50 (CCRF-CEM leukemia) | TGI (CCRF-CEM leukemia) | GI50 (M14 melanoma) | TGI (M14 melanoma) | GI50 (SF-268 CNS) | TGI (SF-268 CNS) | GI50 (T-47D breast) | TGI (T-47D breast) | GI50 (OVCAR-3 ovarian) | TGI (OVCAR-3 ovarian) | GI50 (SNB-19 CNS) | TGI (SNB-19 CNS)
CC(C)=CCc1cc(O)cc2c1OC(C=C(C)C)C1=C2C(=O)C2=C(NCCS2(=O)=O)C1=O (stereo not given) | 2.94 µM | 5.47 µM | 2.3 µM | 4.61 µM | 2.15 µM | 4.7 µM | 2.74 µM | 6.46 µM | 4.05 µM | > 16.7 µM | 0.646 µM | 2.69 µM | 2.34 µM | 8.2 µM | 3.32 µM | 14.1 µM | 0.456 µM | 2.01 µM | 2.25 µM | 4.44 µM
N#Cc1c(-c2ccc(F)cc2)c(-c2ccc(F)cc2)nn(CCO)c1=O |  | > 54.2 µM |  | > 100 µM |  | 11.2 µM |  | 8.6 µM |  | 24.9 µM |  | > 100 µM |  | > 100 µM |  | > 100 µM |  | 0.69 µM |  | > 100 µM
O=C(c1ccc(Cl)cc1)c1cnc(Nc2ccccc2Cl)s1 |  | 27.3 µM |  | 47.2 µM |  | 42.8 µM |  | 51.6 µM |  | > 100 µM |  | > 31.6 µM |  | 57.6 µM |  | 47.9 µM |  | 40.9 µM |  | 51.3 µM
CCOc1ccc2nc(S/C(=C/C=C(C#N)C#N)c3ccc(C)cc3)sc2c1 | 42.3 µM | > 100 µM | > 100 µM | > 100 µM | 19.9 µM | 46.7 µM | 12.2 µM | 28.8 µM | 2.05 µM | 5.52 µM | 35.8 µM | > 100 µM | 30 µM | > 100 µM | 42.4 µM | > 100 µM | 32.6 µM | > 100 µM | > 100 µM | > 100 µM
O=c1c2ccccc2sc2cccc(NCCCN3CCN(CCCNc4cccc5sc6ccccc6c(=O)c45)CC3)c12 |  | > 100 µM |  | > 100 µM |  | > 100 µM |  | > 100 µM |  | > 100 µM |  | > 100 µM |  | > 100 µM |  | > 100 µM |  | > 100 µM |  | > 100 µM
CCCn1c(N)c(C(=O)N/N=C(/C)c2cc3cccc(OC)c3o2)sc1=S | 65.4 µM | > 100 µM | 23.2 µM | > 100 µM | 24.1 µM | > 100 µM | 22.1 µM | > 100 µM | 30.7 µM | > 100 µM | 53.8 µM | > 100 µM | 22.4 µM | > 100 µM | > 100 µM | > 100 µM | 30.1 µM | > 100 µM | 30.2 µM | > 100 µM
C=CC(=O)N1CCC(C2CCNc3c(C(N)=O)c(-c4ccc(Oc5ccccc5)cc4)nn32)CC1 (stereo not given) | 2.33 µM | 7.19 µM | 20.3 µM | 51.2 µM | 9.22 µM | 26.6 µM | 14.9 µM | 46.3 µM | 24.8 µM | > 100 µM | 15.4 µM | 33.1 µM | 6.98 µM | 45 µM | 1.4 µM | 28.4 µM | 12.2 µM | 56.2 µM | 14.4 µM | > 100 µM
Cc1[nH]c2ccccc2c1-c1cc(-c2cc(-c3c(C)[nH]c4ccccc34)on2)no1 |  | > 100 µM |  | > 100 µM |  | > 100 µM |  | > 100 µM |  | > 100 µM |  | > 100 µM |  | > 100 µM |  | > 100 µM |  | > 100 µM |  | > 100 µM
CC(=O)c1cc2c(o1)C(=O)c1ccccc1C2=O | 0.682 µM and 1.37 µM | 1.48 µM and 2.69 µM | 0.191 µM and 0.197 µM | 0.37 µM and 0.451 µM | 0.239 µM and 0.249 µM | 0.563 µM and 0.634 µM | 0.166 µM and 0.179 µM | 0.365 µM and 0.398 µM | 0.403 µM and 1.02 µM | > 100 µM | 0.169 µM and 0.183 µM | 0.322 µM and 0.345 µM | 0.28 µM and 0.513 µM | 0.959 µM and 2.3 µM | 1.33 µM and 1.6 µM | 3.43 µM and 4.06 µM | 0.218 µM and 0.225 µM | 0.507 µM and 0.529 µM | 0.222 µM and 0.267 µM | 0.508 µM and 0.795 µM
